According to patent US10758536B2, “Method for treating shingles with N-methanocarbathymidine (N-MCT)” (priority 2015, dated 2020):
In brackets after ≈: the same amount, converted by molar mass. Entries after “also recorded” stand apart in the source; their conditions may differ.

Key:
VZV [1] = assay: EC50 determination in HFFs, VZV-BAC-Luc bioluminescence; assay type: cell-based, varicella-zoster virus
Experimental: Human foreskin fibroblasts (HFFs) (CCD-1137Sk; American Type Culture Collection), used prior to passage 20 were grown in Eagle minimum essential medium with Earle's salts and L-glutamine (HyClone Laboratories), supplemented with 10% heat-inactivated fetal bovine serum (Benchmark FBS; Gemini Bio Products), penicillin-streptomycin (5000 IU/mL), amphotericin B (250 µg/mL), and nonessential amino acids (all Mediatech). VZV-BAC-Luc (Zhang et al., 2007), derived from the Parental Oka (POka, Accession number: AB097933) strain was propagated in HFFs. To prepare the virus for inoculation, VZV-infected HFFs were trypsinized, then washed and resuspended in TCM, and used immediately for direct injection. Each tissue was injected twice with 30 μL of the cell suspension using a 1 cc syringe fitted with a 27-gauge needle attached to a volumetric stepper (Tridak). […]
The first question we addressed was whether N-MCT was effective against VZV in cultured cells. A standard EC50 evaluation was performed using the VZV-BAC-Luc strain and virus yield was measured by bioluminescence. […]
Cells were treated for 48 hpi (hour post infection) and the medium containing the drug was changed after 24 h. VZV spread was measured by bioluminescence imaging at 48 hpi and expressed as Total Flux (photons/sec/cm^2/steradian). […]

VZV [2] = assay: Skin organ culture assay, drug in medium; assay type: cell-based, varicella-zoster virus
Experimental: Human foreskin fibroblasts (HFFs) (CCD-1137Sk; American Type Culture Collection), used prior to passage 20 were grown in Eagle minimum essential medium with Earle's salts and L-glutamine (HyClone Laboratories), supplemented with 10% heat-inactivated fetal bovine serum (Benchmark FBS; Gemini Bio Products), penicillin-streptomycin (5000 IU/mL), amphotericin B (250 µg/mL), and nonessential amino acids (all Mediatech). VZV-BAC-Luc (Zhang et al., 2007), derived from the Parental Oka (POka, Accession number: AB097933) strain was propagated in HFFs. To prepare the virus for inoculation, VZV-infected HFFs were trypsinized, then washed and resuspended in TCM, and used immediately for direct injection. Each tissue was injected twice with 30 μL of the cell suspension using a 1 cc syringe fitted with a 27-gauge needle attached to a volumetric stepper (Tridak). The needle was lightly dragged across the tissue approximately 5 times to scarify the surface to increase infection. Tissues were incubated at 37° C. for 3 h to allow the virus to adhere, and then placed individually on NetWells that had contact with 1.0 mL of tissue culture medium. The cell-associated VZV inoculum was titered on MeWo cells (Taylor and Moffat, 2005) and was typically 1.5×10^6 pfu/mL, which is approximately 9×10^4 pfu/tissue.
In skin organ culture, higher concentrations of N-MCT were needed to reduce VZV spread; virus yield was reduced ˜100-fold when [N-MCT] was greater than 10 μg/mL.

VZV [3] = assay: SCID-Hu mouse model of VZV replication, oral dose range; assay type: in vivo, varicella-zoster virus
Experimental: SCID-hu mice with human skin xenografts were infected intradermally with VZV and treated orally twice daily with vehicle, PFA (positive control), or N-MCT at 5, 10, 20, 25, 50, or 100 mg/kg/day. Virus spread was measured daily by in vivo bioluminescence imaging (IVIS). […] The results were analyzed for statistical significance by ANOVA and Dunnett's post hoc test of multiple comparisons (GraphPad Prism).

VZV [4] = assay: Skin organ culture topical Assay 1: dose dependence (carbopol gel); assay type: cell-based, varicella-zoster virus
Experimental: Place 36 mL deionized sterile water into small beaker with stir bar. Slowly waft 900 mg of carbopol (980 NF, Lot # CCONLCC013, Lubrizol Corp) into water, avoiding clumps. Add equal volume N-MCT in 20% hydroxypropyl-β-cyclodextrin (Sigma) at 2× to reach the desired concentration. Add 2 drops NaOH (18% solution) to attain a pH near 5.0. Store at 4° C. The 0.5% cidofovir gel was made in a similar manner except that cidofovir was dissolved in water. The DMSO vehicle was prepared by adding a 2% DMSO solution in water to the carbopol suspension at a 1:1 ratio. Hydroxypropyl-β-cyclodextrin (HPBCD) was prepared by mixing 5.0 g with 20 mL sterile water. Stock solution of N-MCT was prepared by dissolving 90 mg N-MCT in 9 mL 20% HPBCD and sonicating for 1 min.
A skin organ culture model was used to evaluate N-MCT as a topical treatment for VZV. Human skin explants were inoculated with VZV by scarification and treated daily from 1-4 days post infection with N-MCT (0.05, 0.5, or 5%) or cidofovir (0.5%, positive control) in a carbopol gel.
Human fetal skin was purchased from ABR and delivered by overnight courier on wet ice. The tissue was cleaned, disinfected in betadine and 70% ethanol, then cut into pieces approximately 1-cm^2. Each piece was inoculated with VZV-BAC-Luc strain that expresses firefly luciferase. Approximately 3 hours after inoculation, the pieces of skin were placed in NetWells above tissue culture medium and incubated overnight. The next day (Day 1) each piece of skin was soaked in D-luciferin for 45 min, and then scanned in the IVIS-50 instrument to measure Total Flux, which is a correlate of VZV pfu. The drug treatment began on Day 1 or later by spreading an aqueous gel (carbopol) containing N-MCT at concentrations of 0.05, 0.5, or 5% (see Assay 1 in Table 4 below). One group of skin was treated with cidofovir ([…] in carbopol gel) for a positive control. Each group contained 4-6 pieces of skin. The drug was applied daily until Day 5 (or other intervals), and then the skin pieces were scanned by IVIS to determine virus yield. […] The results were analyzed for statistical significance by ANOVA and Dunnett's post hoc test of multiple comparisons (GraphPad Prism).

Cc1cn([C@]23C[C@H](O)[C@@H](CO)[C@@H]2C3)c(=O)[nH]c1=O [N-MCT, N-methanocarbathymidine]
EC50 (VZV [1]; Human alphaherpesvirus 3, Fibroblast, human foreskin fibroblasts, VZV-BAC-Luc, bioluminescence at 48 hpi): 0.06 µg/mL (≈ 0.238 µM) | EC50 (VZV [1]; Human alphaherpesvirus 3, cultured cells): 0.06 µg/mL (≈ 0.238 µM) | VZV growth in skin organ culture (VZV [2]; FIG. 2): prevents VZV growth | virus yield reduction (VZV [2]; [N-MCT] greater than 10 μg/mL, skin organ culture): ~100 fold | concentrations at which N-MCT prevents VZV spread in human skin explants (VZV [2]; human skin explants, drug in medium): > 10 µg/mL | VZV spread in mouse model, effectiveness (VZV [3]; 5-100 mg/kg/day p.o. BID): prevents VZV spread; also recorded: effective | VZV yield and growth rates compared to vehicle (VZV [3]; all doses, N-MCT 5-100 mg/kg/day BID, p<0.0001, ANOVA and Dunnett): significantly reduced | doses more effective than control antiviral compounds (PAA, PFA, cidofovir) (VZV [3]; mouse model of virus replication): > 10 mg/kg/day | optimal dose (VZV [3]; p.o. BID, SCID-Hu mice): approximately 20 mg/kg/day | VZV yield compared to vehicle (VZV [4]; N-MCT 0.05, 0.5, 5% or cidofovir in carbopol gel, daily, p<0.0004): significantly reduced | VZV replication in skin explants, topical gel (VZV [4]; N-MCT 0.05-5%, cidofovir 0.5% in carbopol gel): prevented VZV replication | reduction of virus yield compared to the vehicle group (VZV [4]; all concentrations, topical carbopol gel, p=0.0004): approximately 100 fold | effective topical concentration, as low as (VZV [4]; carbopol gel with 10% hydroxypropyl-β-cyclodextrin, human skin explants): ≥ 0.05%
